Reference: patent US20250120932A1, “PHARMACEUTICAL COMPOSITION” (NEUROPRO THERAPEUTICS, INC., priority 2021, published 2025)
Values joined by “and” are separate entries in the source; they are usually repeats but may differ in a detail not shown here. Equal entries are not always repeated.

Assay: Pharmacokinetic study in cynomolgus monkeys after oral (nasogastric) gavage, sublingual and intravenous administration
Type: in vivo
Settings: monkey
Protocol: A pharmacokinetic study was done in cynomolgus monkeys following single oral (nasogastric) gavage, sublingual, and intravenous administration. […] Calibration curves, blanks, and analytical QCs were prepared in monkey plasma (K2EDTA). The extracts were evaporated to dryness, reconstituted, and then analyzed by LC-MS/MS. The calibration range was 0.250-250 ng/mL for both analytes.
If the criteria for either the calibration curve or the analytical QCs were not met, the analytical run was rejected. […] No deviations were found during the bioanalytical phase of the study conducted by Origin. Calibration curves were derived from the individual analyte to internal standard peak area ratios using the least squared regression of the ratio versus the nominal concentration of the calibration standard, prepared in duplicate. The regression was then used to back-calculate the concentration of each calibration standard, QC sample and study sample. […] Analyst® Software Version 1.6.3 (Applied Biosystems-MDS Sciex), operated with Windows® (Microsoft), was used for instrument control, data acquisition, and peak integrations. Peak area ratios, standard curve regressions, and sample concentration/accuracy values were calculated with Analyst® Software Version 1.6.3. Other results (e.g., mean statistics) were calculated with Excel® (Microsoft).
There was no apparent sex difference for the second formulation. […] A fourth formulation comprising the composition B listed in Table 54 was also administered in monheys.

## CCCCNc1cc(C(=O)N(Cc2ccccc2)Cc2ccccc2)cc(S(N)(=O)=O)c1Oc1ccccc1 [Bumetanide Dibenzylamide, N, N-dibenzyl 3-aminosulfonyl-5-butylamino-4-phenoxybenzamide]
Cynomolgus monkey, plasma, other: sublingual, 5 mg/kg, Plasma Bumetanide Dibenzylamide concentration, Median, SL, dose column 5 mg/kg (title 30 mg/kg), Fourth Formulation (Form 2), 2.0 h, N=4
  concentration at 2 h: 0 ng/mL
Cynomolgus monkey, plasma, other: sublingual, 5 mg/kg, Plasma Bumetanide Dibenzylamide concentration, Median, SL, dose column 5 mg/kg (title 30 mg/kg), Fourth Formulation (Form 2), 4.0 h, N=4
  concentration at 4 h: 0 ng/mL
Cynomolgus monkey, plasma, other: sublingual, 5 mg/kg, Plasma Bumetanide Dibenzylamide concentration, Median, SL, dose column 5 mg/kg (title 30 mg/kg), Fourth Formulation (Form 2), 8.0 h, N=4
  concentration at 8 h: 0.505 ng/mL
Cynomolgus monkey, plasma, other: sublingual, 5 mg/kg, Plasma Bumetanide Dibenzylamide concentration, Median, SL, dose column 5 mg/kg (title 30 mg/kg), Fourth Formulation (Form 2), 24.0 h, N=4
  concentration at 24 h: 0.182 ng/mL
Cynomolgus monkey, plasma, other: sublingual, 5 mg/kg, Plasma Bumetanide Dibenzylamide concentration, Median, SL, dose column 5 mg/kg (title 30 mg/kg), Fourth Formulation (Form 2), 32.0 h, N=4
  concentration at 32 h: 0 ng/mL
Cynomolgus monkey, plasma, other: sublingual, 5 mg/kg, Plasma Bumetanide Dibenzylamide concentration, SL, dose column 5 mg/kg (title 30 mg/kg), Fourth Formulation (Form 2), 0.00 h, individual animals
  concentration at 0 h: 0 ng/mL
Cynomolgus monkey, plasma, other: sublingual, 5 mg/kg, Plasma Bumetanide Dibenzylamide concentration, SL, dose column 5 mg/kg (title 30 mg/kg), Fourth Formulation (Form 2), 0.25 h, individual animals
  concentration at 0.25 h: 0 ng/mL
Cynomolgus monkey, plasma, other: sublingual, 5 mg/kg, Plasma Bumetanide Dibenzylamide concentration, SL, dose column 5 mg/kg (title 30 mg/kg), Fourth Formulation (Form 2), 0.50 h, individual animals
  concentration at 0.5 h: 0 ng/mL
Cynomolgus monkey, plasma, other: sublingual, 5 mg/kg, Plasma Bumetanide Dibenzylamide concentration, SL, dose column 5 mg/kg (title 30 mg/kg), Fourth Formulation (Form 2), 1.0 h, individual animals
  concentration at 1 h: 0 ng/mL
cynomolgus, cynomolgus monkey, plasma, intravenous, 2 mg/kg, Plasma Bumetanide Dibenzylamide concentration, Median, dose column 2 mg/kg (title 30 mg/kg), Third Formulation (Form 4), 0.08 h, N=4
  concentration at 0.08 h: 1370 ng/mL
cynomolgus, cynomolgus monkey, plasma, intravenous, 2 mg/kg, Plasma Bumetanide Dibenzylamide concentration, Median, dose column 2 mg/kg (title 30 mg/kg), Third Formulation (Form 4), 0.50 h, N=4
  concentration at 0.5 h: 672 ng/mL
cynomolgus, cynomolgus monkey, plasma, intravenous, 2 mg/kg, Plasma Bumetanide Dibenzylamide concentration, Median, dose column 2 mg/kg (title 30 mg/kg), Third Formulation (Form 4), 1.00 h, N=4
  concentration at 1 h: 504 ng/mL
cynomolgus, cynomolgus monkey, plasma, intravenous, 2 mg/kg, Plasma Bumetanide Dibenzylamide concentration, Median, dose column 2 mg/kg (title 30 mg/kg), Third Formulation (Form 4), 2.00 h, N=4
  concentration at 2 h: 297 ng/mL
cynomolgus, cynomolgus monkey, plasma, intravenous, 2 mg/kg, Plasma Bumetanide Dibenzylamide concentration, Median, dose column 2 mg/kg (title 30 mg/kg), Third Formulation (Form 4), 4.00 h, N=4
  concentration at 4 h: 109 ng/mL
cynomolgus, cynomolgus monkey, plasma, intravenous, 2 mg/kg, Plasma Bumetanide Dibenzylamide concentration, Median, dose column 2 mg/kg (title 30 mg/kg), Third Formulation (Form 4), 8.00 h, N=4
  concentration at 8 h: 27.2 ng/mL
cynomolgus, cynomolgus monkey, plasma, intravenous, 2 mg/kg, Plasma Bumetanide Dibenzylamide concentration, Median, dose column 2 mg/kg (title 30 mg/kg), Third Formulation (Form 4), 24.00 h, N=4
  concentration at 24 h: 2.62 ng/mL
cynomolgus, cynomolgus monkey, plasma, intravenous, 2 mg/kg, Plasma Bumetanide Dibenzylamide concentration, Median, dose column 2 mg/kg (title 30 mg/kg), Third Formulation (Form 4), 32.00 h, N=4
  concentration at 32 h: 0.917 ng/mL
IV, dose column 2 mg/kg (title 30 mg/kg), Third Formulation (Form 4), 0.08 h, individual animals
  Plasma Bumetanide Dibenzylamide concentration: 1430 ng/mL and 1160 ng/mL and 1310 ng/mL
IV, dose column 2 mg/kg (title 30 mg/kg), Third Formulation (Form 4), 0.50 h, individual animals
  Plasma Bumetanide Dibenzylamide concentration: 757 ng/mL and 555 ng/mL and 626 ng/mL
IV, dose column 2 mg/kg (title 30 mg/kg), Third Formulation (Form 4), 1.00 h, individual animals
  Plasma Bumetanide Dibenzylamide concentration: 536 ng/mL and 472 ng/mL and 385 ng/mL
IV, dose column 2 mg/kg (title 30 mg/kg), Third Formulation (Form 4), 2.00 h, individual animals
  Plasma Bumetanide Dibenzylamide concentration: 316 ng/mL and 278 ng/mL and 214 ng/mL
IV, dose column 2 mg/kg (title 30 mg/kg), Third Formulation (Form 4), 4.00 h, individual animals
  Plasma Bumetanide Dibenzylamide concentration: 87.8 ng/mL and 129 ng/mL and 89.3 ng/mL
IV, dose column 2 mg/kg (title 30 mg/kg), Third Formulation (Form 4), 8.00 h, individual animals
  Plasma Bumetanide Dibenzylamide concentration: 51.4 ng/mL and 26.6 ng/mL and 27.7 ng/mL and 17.2 ng/mL
IV, dose column 2 mg/kg (title 30 mg/kg), Third Formulation (Form 4), 24.00 h, individual animals
  Plasma Bumetanide Dibenzylamide concentration: 3.95 ng/mL and 0.942 ng/mL and 8.10 ng/mL and 1.28 ng/mL
IV, dose column 2 mg/kg (title 30 mg/kg), Third Formulation (Form 4), 32.00 h, individual animals
  Plasma Bumetanide Dibenzylamide concentration: 1.47 ng/mL and 0.303 ng/mL and 3.80 ng/mL and 0.363 ng/mL
NG 30 mg/kg, First Formulation (Form 1), 0.00 h, individual animals, female monkeys
  Plasma Bumetanide Dibenzylamide concentration: 0.00 ng/mL
NG 30 mg/kg, First Formulation (Form 1), 0.00 h, individual animals, male monkeys
  Plasma Bumetanide Dibenzylamide concentration: 0.00 ng/mL
NG 30 mg/kg, First Formulation (Form 1), 0.25 h, individual animals, female monkeys
  Plasma Bumetanide Dibenzylamide concentration: 0.992 ng/mL and 0.398 ng/mL
NG 30 mg/kg, First Formulation (Form 1), 0.25 h, individual animals, male monkeys
  Plasma Bumetanide Dibenzylamide concentration: 0.932 ng/mL and 14.9 ng/mL
NG 30 mg/kg, First Formulation (Form 1), 0.50 h, individual animals, female monkeys
  Plasma Bumetanide Dibenzylamide concentration: 1.66 ng/mL and 1.18 ng/mL
NG 30 mg/kg, First Formulation (Form 1), 0.50 h, individual animals, male monkeys
  Plasma Bumetanide Dibenzylamide concentration: 3.97 ng/mL and 16.8 ng/mL
NG 30 mg/kg, First Formulation (Form 1), 1.00 h, individual animals, female monkeys
  Plasma Bumetanide Dibenzylamide concentration: 8.08 ng/mL and 3.01 ng/mL
NG 30 mg/kg, First Formulation (Form 1), 1.00 h, individual animals, male monkeys
  Plasma Bumetanide Dibenzylamide concentration: 12.1 ng/mL and 29.7 ng/mL
NG 30 mg/kg, First Formulation (Form 1), 2.00 h, individual animals, female monkeys
  Plasma Bumetanide Dibenzylamide concentration: 11.1 ng/mL and 8.35 ng/mL
NG 30 mg/kg, First Formulation (Form 1), 2.00 h, individual animals, male monkeys
  Plasma Bumetanide Dibenzylamide concentration: 157 ng/mL and 74.0 ng/mL
NG 30 mg/kg, First Formulation (Form 1), 4.00 h, individual animals, female monkeys
  Plasma Bumetanide Dibenzylamide concentration: 9.83 ng/mL and 23.8 ng/mL
NG 30 mg/kg, First Formulation (Form 1), 4.00 h, individual animals, male monkeys
  Plasma Bumetanide Dibenzylamide concentration: 182 ng/mL and 51.4 ng/mL
NG 30 mg/kg, First Formulation (Form 1), 8.00 h, individual animals, female monkeys
  Plasma Bumetanide Dibenzylamide concentration: 17.5 ng/mL and 17.0 ng/mL
NG 30 mg/kg, First Formulation (Form 1), 8.00 h, individual animals, male monkeys
  Plasma Bumetanide Dibenzylamide concentration: 99.9 ng/mL and 45.1 ng/mL
NG 30 mg/kg, First Formulation (Form 1), 24.00 h, individual animals, female monkeys
  Plasma Bumetanide Dibenzylamide concentration: 3.28 ng/mL and 2.02 ng/mL
NG 30 mg/kg, First Formulation (Form 1), 24.00 h, individual animals, male monkeys
  Plasma Bumetanide Dibenzylamide concentration: 21.6 ng/mL and 7.47 ng/mL
NG 30 mg/kg, First Formulation (Form 1), 32.00 h, individual animals, female monkeys
  Plasma Bumetanide Dibenzylamide concentration: 0.790 ng/mL and 1.37 ng/mL
NG 30 mg/kg, First Formulation (Form 1), 32.00 h, individual animals, male monkeys
  Plasma Bumetanide Dibenzylamide concentration: 9.75 ng/mL and 6.13 ng/mL
NG 30 mg/kg, Second Formulation (Form 3), 0.00 h, individual animals, female monkeys
  Plasma Bumetanide Dibenzylamide concentration: 0.00 ng/mL
NG 30 mg/kg, Second Formulation (Form 3), 0.00 h, individual animals, male monkeys
  Plasma Bumetanide Dibenzylamide concentration: 0.00 ng/mL
NG 30 mg/kg, Second Formulation (Form 3), 0.25 h, individual animals, female monkeys
  Plasma Bumetanide Dibenzylamide concentration: 0.619 ng/mL and 0.261 ng/mL
NG 30 mg/kg, Second Formulation (Form 3), 0.25 h, individual animals, male monkeys
  Plasma Bumetanide Dibenzylamide concentration: 0.250 ng/mL and 0.00 ng/mL
NG 30 mg/kg, Second Formulation (Form 3), 0.50 h, individual animals, female monkeys
  Plasma Bumetanide Dibenzylamide concentration: 4.98 ng/mL and 1.71 ng/mL
NG 30 mg/kg, Second Formulation (Form 3), 0.50 h, individual animals, male monkeys
  Plasma Bumetanide Dibenzylamide concentration: 1.55 ng/mL and 3.16 ng/mL
NG 30 mg/kg, Second Formulation (Form 3), 1.00 h, individual animals, female monkeys
  Plasma Bumetanide Dibenzylamide concentration: 20.2 ng/mL and 7.09 ng/mL
NG 30 mg/kg, Second Formulation (Form 3), 1.00 h, individual animals, male monkeys
  Plasma Bumetanide Dibenzylamide concentration: 7.56 ng/mL and 11.3 ng/mL
NG 30 mg/kg, Second Formulation (Form 3), 2.00 h, individual animals, female monkeys
  Plasma Bumetanide Dibenzylamide concentration: 79.3 ng/mL and 37.8 ng/mL
NG 30 mg/kg, Second Formulation (Form 3), 2.00 h, individual animals, male monkeys
  Plasma Bumetanide Dibenzylamide concentration: 16.8 ng/mL and 82.5 ng/mL
NG 30 mg/kg, Second Formulation (Form 3), 4.00 h, individual animals, female monkeys
  Plasma Bumetanide Dibenzylamide concentration: 140 ng/mL and 247 ng/mL
NG 30 mg/kg, Second Formulation (Form 3), 4.00 h, individual animals, male monkeys
  Plasma Bumetanide Dibenzylamide concentration: 126 ng/mL and 410 ng/mL
NG 30 mg/kg, Second Formulation (Form 3), 8.00 h, individual animals, female monkeys
  Plasma Bumetanide Dibenzylamide concentration: 457 ng/mL and 674 ng/mL
NG 30 mg/kg, Second Formulation (Form 3), 8.00 h, individual animals, male monkeys
  Plasma Bumetanide Dibenzylamide concentration: 785 ng/mL
NG 30 mg/kg, Second Formulation (Form 3), 24.00 h, individual animals, female monkeys
  Plasma Bumetanide Dibenzylamide concentration: 9.30 ng/mL and 10.7 ng/mL
NG 30 mg/kg, Second Formulation (Form 3), 24.00 h, individual animals, male monkeys
  Plasma Bumetanide Dibenzylamide concentration: 26.4 ng/mL and 8.13 ng/mL
NG 30 mg/kg, Second Formulation (Form 3), 32.00 h, individual animals, female monkeys
  Plasma Bumetanide Dibenzylamide concentration: 1.63 ng/mL and 1.62 ng/mL
NG 30 mg/kg, Second Formulation (Form 3), 32.00 h, individual animals, male monkeys
  Plasma Bumetanide Dibenzylamide concentration: 6.41 ng/mL and 2.08 ng/mL
SL, dose column 5 mg/kg (title 30 mg/kg), Fourth Formulation (Form 2), 4.0 h, individual animals
  Plasma Bumetanide Dibenzylamide concentration: 0.00 ng/mL
SL, dose column 5 mg/kg (title 30 mg/kg), Fourth Formulation (Form 2), 8.0 h, individual animals
  Plasma Bumetanide Dibenzylamide concentration: 0.380 ng/mL
SL, dose column 5 mg/kg (title 30 mg/kg), Fourth Formulation (Form 2), 24.0 h, individual animals
  Plasma Bumetanide Dibenzylamide concentration: 0.363 ng/mL
SL, dose column 5 mg/kg (title 30 mg/kg), Fourth Formulation (Form 2), 32.0 h, individual animals
  Plasma Bumetanide Dibenzylamide concentration: 0.00 ng/mL
